Test results as given in the NIST ThermoML archive (doi:10.1016/j.fluid.2013.08.005).
Where “and” joins values, the source holds several entries; their conditions need not be identical. Identical values can stand only once. ± gives the expanded uncertainty stated by the source.

What was measured:
[1] = molar heat capacity at constant pressure; mn = molality of the nth substance listed, in mol/kg; settings: 101 kPa, Liquid, Large sample (1 g) DSC, m2 = 0
[2] = molar heat capacity at constant pressure; settings: 101 kPa, Liquid, Large sample (1 g) DSC
[3] = mn = molality of the nth substance listed, in mol/kg; settings: 298.15 K; 101 kPa; Liquid; Alternating current cell with electrodes; m2 = 0

molar heat capacity at constant pressure ([1]; 298.15 K) [J/K/mol]	molar heat capacity at constant pressure ([1]; 303.15 K) [J/K/mol]	molar heat capacity at constant pressure ([1]; 308.15 K) [J/K/mol]	molar heat capacity at constant pressure ([1]; 313.15 K) [J/K/mol]	electrical conductivity [3] [S/m]	SMILES	molar heat capacity at constant pressure ([2]; 298.15 K)	molar heat capacity at constant pressure ([2]; 303.15 K)	molar heat capacity at constant pressure ([2]; 308.15 K)	molar heat capacity at constant pressure ([2]; 313.15 K)
75.35 ± 1.3	75.32 ± 1.3	75.32 ± 1.3	75.33 ± 1.3		O [water] + CCCCCCCC[N+](C)(C)C.[Br-]				
					O [water]	75.37 ± 1.3 J/K/mol and 75.35 ± 1.3 J/K/mol	75.34 ± 1.3 J/K/mol and 75.32 ± 1.3 J/K/mol	75.33 ± 1.3 J/K/mol and 75.32 ± 1.3 J/K/mol	75.34 ± 1.3 J/K/mol and 75.33 ± 1.3 J/K/mol
75.37 ± 1.3	75.34 ± 1.3	75.33 ± 1.3	75.34 ± 1.3	0.239 ± 0.0095	O [water] + CCCCCC[N+](C)(C)C.[Br-]				
